The record followed here is PMC6839601, “Discovery of selective, antimetastatic and anti-cancer stem cell metallohelices via post-assembly modification” (Chemical Science, 2019).

One experiment concerns HCT116p53+/+. Description: Cytotoxicity in HCT116 p53+/+ cells, SRB assay. The experiment is classed as cell-based. The settings on record: Homo sapiens, HCT-116, 72 h, read-out: IC50 HCT116p53+/+. On the technique in general: The SRB assay estimates cell density from bound dye.
A further experiment concerns HCT116.CD133+ cells. Description: Inhibition of HCT116.CD133+ colonosphere formation. The experiment is classed as cell-based, human. The settings on record: IC30 values for 6 days. The method, then: (§1) Supplementary Figure 28. Representative images of the HCT116 p53 +/+ colonospheres untreated or treated
(§2) with the investigated compounds at their respective IC 30 values for 72 h. Scale bars: 100 µm.
(§3) colonosphere formation similarly or more effectively than  Δ-[Fe 2L13]Cl4 and salinomycin, a
(§4) well-established CSC-potent agent.
(§5) 10.2 Separation of HCT116.CD133 + and HCT116.CDD133 - cells by magnetically
(§6) activated cell sorting (MACS)
(§7) Positive selection with a single marker of CD133/1 (AC133) was used to enrich for CSCs. The
(§8) cells were harvested by non-enzymatic Cell Stripper (Corning), prepared into single cell
(§9) suspension (30 µm strainer) and counted. Approx. 2×10^7 cells were obtained for cell sorting.
(§10) For a selection of CD133 single positive cells, the cells were stained with the APC-conjugated
(§11) incubated for 20 min at 4-8 °C. The cells were washed with buffer (PBS, 0.5% BSA, pH 7.2;
(§12) prepared by diluting MACS BSA Stock Solution (130-091-376) 1:20 with auto MACS Rinsing
(§13) Solution (130-091-222)) and incubated with Anti-APC Micro Bead (Miltenyi Biotec, 130-090- […]
(§14) three-times in Buffer and analyzed on BD FACSVerse flow cytometer (San Jose, CA, USA);
(§15) the data were analyzed using BD FACSSuite software.
(§16) Supplementary Figure 29. Representative histograms displaying the red fluorescence emitted by anti-CD133- […]
(§17) the medium. The number and size of spheres were determined using an inverted microscope.

Experiment [1] concerns CSC enriched HCT116.CD133+ cells. In words: Cytotoxicity in HCT116.CD133+ cells, SRB assay. The experiment is classed as cell-based. The settings on record: Homo sapiens, 72 h, read-out: IC50 HCT116.CD133+. The text has this: Supplementary Figure 30. Growth inhibitory effects in HCT116.CD133- and HCT116.CD133+ cancer cells.
Representative microscopy images of the HCT116.CD133- colonospheres in the absence (a) and presence of […]
salinomycin (b), Δ-[Fe 2L13]Cl4 (c), and Δ-[Fe 2L3a3]Cl4 (d), treated at their respective IC30 values for 6 days (scale […]
bar: 100 µm). Quantification of colonosphere formation from HCT116.CD133+ (e) and HCT116.CD133- (f,g) […]
under the same conditions. Data represent the mean value and SD from three independent experiments. p < 0.01, […]
10.5 Cytotoxicity in HCT116.CD133 + cells, SRB assay
Sorted HCT116.CD133+ cells were plated in 96w culture plates (TPP) (3000 cells per well) […]
and cultured for 3 days to allow cells to recover after sorting and to grow to the desired density.
Cells were then treated with different concentrations of the investigated compounds, […]
with Tris base (pH 10.5). The absorbance at 570 nm was measured using a SUNRISE Tecan […]
absorbance reader (Schoeller). The IC50 values were calculated from curves constructed by […]
plotting cell survival (%) versus drug concentration (μM). The reading values were converted […]
to the percentage of control (% cell survival). Cytotoxic effects were expressed as IC 50. […]
determined with SRB assay. a […]
aThe cells were treated for 72 h. The results are expressed as mean ± SD of three independent experiments. […]

The subject of the next experiment is HCT116 p53+/+ cells. Description: Inhibition of HCT116 colonosphere formation. The experiment is classed as cell-based, human. The settings on record: IC30 for 72 h, then 6 days. On the procedure:
Cells were treated with drug (IC30 concentration) for 72 h, washed, harvested with StemPro Accutase, and plated in ultra-low attachment 96-well culture plates (300 cells per well). Cells were cultured in for 6 days without disturbing the plates or replenishing the medium and the number/size of spheres were determined using an inverted microscope.
10. Anti-cancer stem cell study
10.1 Inhibition of HCT116 colonsphere formation
HCT116 p53+/+ (adherent) cells were treated with  Δ-[Fe 2L13]Cl4,  Δ-[Fe 2L3a3]Cl4 and
salinomycin (at their IC30 values) for 72 h. Cells were then washed with PBS, harvested by
StemProAccutase (Gibco) and plated in ultralow-attachment 96w culture plates (Corning)
(300cells per well). Cells were cultured in DMEM/F12 supplemented with B27 (-vitA, Gibco,
ngmL-1 FGF2 (Sigma, F0291) for 6 days without disturbing the plates and without replenishing
as §17
Supplementary Table 3. Quantification of colonospheres formation in HCT116 p53+/+ cells untreated or treated […]
aThe results are expressed as mean ± SD of three independent experiments.
Supplementary Figure 27. Quantification of colonosphere formation in HCT116 p53+/+ colonospheres untreated
or treated with the investigated compounds at their respective IC30 values for 72 h. The results are expressed as […]

A further experiment concerns HCT116.CD133- cells. Description: Inhibition of HCT116.CD133- colonosphere formation. The experiment is classed as cell-based, human. The settings on record: IC30 values for 6 days. On the procedure:
as §1, §2, §3, §4, §5, §6, §7, §8, §9, §10, §11, §12, §13, §14, §15, §16, §17

For the next experiment, the system named is Na+/K+ ATPase. Description: Rubidium based assay for detection of Na+/K+ ATPase activity. Further details: species or system human. The settings on record: A2780 and HCT116 p53+/+ cell lines, 10 μM for 6 h, then RbCl (5.4 mM) 3 h, ICP-MS. On the procedure: Cells were seeded in 6-well plates and incubated for 24 h at 37 °C in an atmosphere of 5% CO2. Cells were then incubated with drug for 6 h, and subsequently the medium was removed and cells were washed with PBS. Cells were then incubated with RbCl (5.4 mM) for 3 h, washed and counted. Rubidium content was determined by ICP-MS.
8.4 Real-time cell growth monitoring
Real-time Cell Analyzer (RTCA) (xCELLigence RTCA SP Instrument, ROCHE) was employed for growth monitoring of cells in the absence and the presence of tested compounds.
After the background of E-plates reading (100 µL medium), the cells were added (5x10^3 cells/well; 50 µL) and grown for 22-28 h. Tested compounds at varying concentrations were then added in 50 µL of media. The impedance was monitored for additional 80 h. An arbitrary unit CI (cell index) is a quantitative measure reflecting the status of the cells (number of attached cells and cell status such as morphology) in an electrode-containing well. Normalized CI at a given time point is given by dividing CI at the time point by CI at a reference time point.
8.5 Rubidium based assay for detection of Na +/K+ ATPase activity
The cells were seeded on 6-well plates (5× 10^5 cells/dish) and incubated overnight. The cells were treated with the investigated compounds for 6 h at 10 µM concentration. […] The cells were then harvested, washed trice with PBS, counted and pelleted. […]

Take `CC[C@@H](C(=O)[C@@H](C)[C@@H](O)[C@H](C)[C@@H]1O[C@@H]([C@@H](CC)C(=O)O)CC[C@@H]1C)[C@H]1O[C@]2(C=C[C@@H](O)[C@]3(CC[C@@](C)([C@H]4CC[C@](O)(CC)[C@H](C)O4)O3)O2)[C@H](C)C[C@@H]1C` [Salinomycin, salinomycin]: the IC50 was 1.48 ± 0.21 µM with HCT116p53+/+ and 1.12 ± 0.23 µM in experiment [1]. Moreover, the “inhibition of colonosphere formation from HCT116.CD133+ cells” value in the experiment on HCT116.CD133+ cells is listed as “effectively inhibit”. For the same molecule, in the experiment on HCT116 p53+/+ cells (control 96 ± 20), the Diameter of colonospheres is reported as 76 ± 17 µm. In the experiment on HCT116 p53+/+ cells (control 224 ± 14), this molecule registered a Spheres/1000cells of 142 ± 14. In addition, the “inhibition of colonosphere formation from HCT116.CD133- cells” value with HCT116.CD133- cells is “do not significantly inhibit”.

Turning to `C[C@@H]1O[C@@H](O[C@H]2C[C@@H](O)[C@]3(CO)[C@H]4[C@H](O)C[C@]5(C)[C@@H](C6=CC(=O)OC6)CC[C@]5(O)[C@@H]4CC[C@]3(O)C2)[C@H](O)[C@H](O)[C@H]1O` [ouabain], in the experiment on Na+/K+ ATPase, the “inhibition of Rb+ uptake” value was 39–57%.
